From patent publication US20050130913A1, “Synergistic insecticidal mixtures” (priority 2002, published 2005) come the findings set out here.

What all share (assay type): in vivo
In data set [1] the test system is mustard beetle larvae (Phaedon cochleariae). The data set is described as follows: Phaedon larvae test (Example F). To be noted: found effect, dipped cabbage leaves. The protocol:
(§1) • Solvent: 7 parts by weight of dimethylformamide • Emulsifier: 2 parts by weight of alkylaryl polyglycol ether
(§2) After the desired period, the destruction in % is determined. 100% means that all of the beetle larvae have been destroyed; 0% means that no beetle larvae have been destroyed. The destruction values determined are calculated using Carpenter's formula.

Data set [2] deals with army worm caterpillars (Spodoptera frugiperda). Description: Spodoptera frugiperda test (Example G). To be noted: found effect, dipped cabbage leaves. The protocol:
(§3) Spodoptera frugiperda Test
as §1
(§4) Cabbage leaves (Brassica oleracea) are treated by being dipped into the active compound preparation of the desired concentration and are populated with army worm caterpillars (Spodoptera frugiperda) while the leaves are still moist.
(§5) After the desired period, the destruction in % is determined. 100% means that all of the caterpillars have been destroyed; 0% means that no caterpillars have been destroyed. The destruction values determined are calculated using Carpenter's formula.

In data set [3] the test system is mustard beetle larvae (Phaedon cochleariae). To be noted: found effect, dipped cabbage leaves (Brassica oleracea). The protocol:
as §1, §2

Data set [4] has as its system diamond-back moth caterpillars (Plutella xylostella, sensitive strain). The data set is described as follows: Plutella test, sensitive strain (Example C). To be noted: found effect, dipped cabbage leaves. Here is the method: Plutella Test, Sensitive Strain
as §1
Cabbage leaves (Brassica oleracea) are treated by being dipped into the active compound preparation of the desired concentration and are populated with diamond-back moth caterpillars (Plutella xylostella, sensitive strain) while the leaves are still moist.
as §5

The subject of data set [5] is diamond-back moth caterpillars (Plutella xylostella, resistant strain). The data set is described as follows: Plutella test, resistant strain (Example D). The conditions noted are these: found effect, dipped cabbage leaves. The protocol:
Plutella Test, Resistant Strain
as §1
Cabbage leaves (Brassica oleracea) are treated by being dipped into the active compound preparation of the desired concentration and are populated with diamond-back moth caterpillars (Plutella xylostella, resistant strain) while the leaves are still moist.
as §5

In data set [6] the test system is Heliothis armigera caterpillars. The conditions noted are these: found effect, dipped soya bean shoots (Glycine max). The protocol:
as §1
Soya bean shoots (Glycine max) are treated by being dipped into the active compound preparation of the desired concentration and are populated with Heliothis armigera caterpillars while the leaves are still moist.
After the desired period, the destruction in % is determined. 100% means that all of the caterpillars have been destroyed; 0% means that no caterpillars have been destroyed. The destruction values determined are calculated using Carpenter's formula (see previous page).

Data set [7] concerns army worm caterpillars (Spodoptera frugiperda). To be noted: found effect, dipped cabbage leaves. The protocol:
as §3
• Solvent: 7 parts by weight of dimethylformamide • Emulsifier: 2 parts by weight of alkylaryl polyglycol ether.
as §4, §5

For `CC[C@H](C)[C@H]1O[C@]2(C=C[C@@H]1C)C[C@@H]1C[C@@H](C/C=C(\C)[C@@H](O[C@H]3C[C@H](OC)[C@@H](O[C@H]4C[C@H](OC)[C@@H](O)[C@H](C)O4)[C@H](C)O3)[C@@H](C)/C=C/C=C3\CO[C@@H]4[C@H](O)C(C)=C[C@@H](C(=O)O1)[C@]34O)O2` [Avermectin, abamectin], the “LC95 after 6 days” value worked out at 0.345 ppm in data set [1] and 30.104 ppm in data set [2].

For emamectin benzoate, the figures for the “LC50 after 6 days” value in data set [3], in data set [6] and in data set [7] were 0.026 ppm, 0.007 ppm and 0.0029 ppm, respectively. Moreover, the “LC95 after 6 days” value in data set [4] is 0.0009 ppm; in data set [5], 0.0033 ppm.
